Consider four compounds from patent US20050002983A1, “Devices, methods, and compositions to prevent restenosis” (priority 2003, published 2005).

Molecules are shown by their SMILES.

Series [1] concerns Human aortic smooth muscle cells (AoSMCs). In words: MTS cell viability/proliferation assay, AoSMC, Days 0-5. As to conditions: for dose-response of cell viability (optical density): 10, 100, 1,000 nM, SMCs and HUVECs, Days 0-5.
Description: Human aortic smooth muscle cells (“AoSMCs”) and human umbilical vein endothelial cells (“HUVECs”) were plated on 96-well culture plates at a density of about 10,000 cells per square centimeter (10,000 cells/cm^2). The density was determined using growth curves determined by calculating the average absolute optical densities (“ODs”, defined as cellular OD—media only OD) for each plating concentration, for each day, and each cell type (AoSMC or HUVEC) over a five-day time period.
Prior to experiments, the AoSMCs and HUVECS were thawed and independently propagated through two- or three population doublings following Clonetics recommendations and standard cell culture techniques. Clonetics Growth Media and Reagents were used without alteration in all aspects of the study described herein unless otherwise noted. […] SMGM contained: 500 ml SMBM-2 basal media, 5% FBS, and all recommended singlequot growth supplements (provided with SMGM-2 bulletkit) ECGM contained: 500 ml EBM basal media, 2% FBS, and all recommended singlequot growth supplements (provided with EGM-bulletkit).
After initial plating all 96-well plates were placed in a standard 37° C., 5% CO2 incubator. Conditions, including media, were not changed except as detailed below. For consecutive 24-hour time-periods, from Day 1 to Day 5, a single 96-well plate was removed from the incubator.
Cell Preparation Source cells were selected at 70-80% confluency of the second or third population doubling since initial thaw. In order to synchronize cell cycle, source cells were changed from standard growth media to media containing 1% serum twenty-four hours prior to experiment (other growth factors were unchanged). On Day 0 of the experiment, source cells were removed from culture dishes by trypsinization (0.05×1 min.-2 min), quantified by hemacytometer after centrifuge (800 RPM×5 min.), and re-suspended in media to obtain a stock solution of about 25,000 cells/ml.
The drugs were dissolved in dimethylsulfoxide (“DMSO”) solvent to make stock solutions, which were then diluted serially in media to three study concentrations (10 nM; 100 nM; and 1,000 nM). The drugs at three concentration each, solvent without drug at three concentrations, and standard media were added independently to cells on the first day of the study only. Cells in two columns (16 wells) for each cell type on each day will not receive drug and serve as internal controls. Cellular viability and proliferation was assessed using the MTS assay for each cell type at each of the six time points.
On Day 1, six hours after initial plating, the media was removed from all wells by vacuum suction; and with the appropriate growth media-drug solution for each of three drugs at three concentrations described above was added to the wells. […]
Series [2] can be described thus: Solubility in PBS. The format is physicochemical.
Series [3] relates to Human aortic smooth muscle cells. In words: IC50 by CellTiter-Glo Luminescent Cell Viability Assay, smooth muscle cells. The format is cell-based. The method, then: The cells were seeded in duplicate, in opaque-walled 96-well microtiter plates at a cell density of 3,000 cells per well and allowed to attach overnight. Serial dilutions of each drug were added, and the cells were incubated for 96 hours. The IC50 values for the drugs was determined using the CellTiter-Glo Luminescent Cell Viability Assay (Promega, Madison, Wis.), which correlates with the number of live cells.
A general note: In ATP-based viability assays light output follows the ATP content of the culture.

Series [4] deals with endothelial cells. In words: Cytotoxicity IC50 against endothelial cells. The format is cell-based.
Series [5] can be described thus: Release kinetics of epothilone D from polymer matrices. It is filed as physicochemical.

By IC50 is commonly meant the concentration needed to halve the response being measured. A high value points to weaker potency. On to `C=CCNC1=C2C[C@@H](C)C[C@H](OC)[C@H](O)[C@@H](C)/C=C(\C)[C@H](OC(N)=O)[C@@H](OC)/C=C\C=C(/C)C(=O)NC(=CC1=O)C2=O` [17-AAG, 17-allylamino-17-desmethoxygeldanamycin], for which the “dose-response of cell viability (optical density)” value (“dose-response of cell viability” for short) in series [1] was “dose-response characteristics consistent with utility to reduce or prevent restenosis”. In addition, the solubility in series [2] stood at 60 micrograms/mL. Besides, the figures for the half-maximal inhibitory concentration (IC50) in series [3] (smooth muscle cells) and in series [4] were ~10 nM and 350 nM, respectively.
With `CO[C@H]1/C=C\C=C(/C)C(=O)NC2=CC(=O)C(NCCN(C)C)=C(C[C@@H](C)C[C@H](OC)[C@H](O)[C@@H](C)/C=C(\C)[C@@H]1OC(N)=O)C2=O` [17-DMAG, 17-[2-(dimethylamino)ethylamino]-17-desmethoxygeldanamycin], the “dose-response of cell viability” value in series [1] is given as “dose-response characteristics consistent with utility to reduce or prevent restenosis”. Also, in series [1] (AoSMC vs HUVEC viability, 10-1,000 nM), the “selectivity for SMCs over ECs” value is on record as “relative selectivity for SMCs over ECs”.
Take `C/C1=C/C[C@@H](/C(C)=C/c2csc(C)n2)OC(=O)C[C@H](O)C(C)(C)C(=O)[C@H](C)[C@@H](O)[C@@H](C)CCC1` [epothilone D]: the results for the “release rate from polymer matrix” value in series [5] (from poly(lactide)) and in series [5] (from polyurethane) were “approximately 6 micrograms/day” and 1.58 micrograms/day, respectively. Further, in series [1], the “dose-response of cell viability” value is given as “dose-response characteristics consistent with utility to reduce or prevent restenosis”.
With `COC1=C2C[C@@H](C)C[C@H](OC)[C@H](O)[C@@H](C)/C=C(\C)[C@H](OC(N)=O)[C@@H](OC)/C=C\C=C(/C)C(=O)NC(=CC1=O)C2=O` [geldanamycin, reference compound], in series [3] (Homo sapiens), the IC50 is ~0.9 nM.
